Like-named read-outs stand apart in the source and are kept apart here.
How the values were obtained:
[1] = system: PqsR (pqsA promoter, PA14 mCTX::PpqsA-lux); experiment: Whole cell biosensor reporter assay, PA14 mCTX::PpqsA-lux; format: cell-based, Pseudomonas aeruginosa; details: for IC50: Mean ± SD, n = 3; for activity at 10 µM: PA14, read-out: PA14 Remaining Activity %; for PqsR inhibitory activity (in words), PA14: screen at 10 µM
Protocol: (§1) To determine the ability of the quinolines to inhibit PqsR functionality, the P. aeruginosa biosensor strains, PAO1-L and PA14, incorporating a chromosomal mCTX::PpqsA-lux transcriptional fusion, were used. These report on the activation of the pqsA promoter, regulated by PqsR [25]. PAO1-L and PA14 were chosen because they are genetically amenable and belong to the two major P. aeruginosa genomic groups. The quinolone compounds were incubated with the corresponding strain, and luminescence and optical density readings were recorded to monitor the effect of the quinolines on PqsR activity and bacterial growth, respectively. The compounds were screened at 10 µM concentration, and the activity was compared to a control of DMSO (0.1%) (Figure 3a). To be considered a hit, a threshold of at least 50% inhibition of the test compound, relative to the negative control had to be reached, without affecting bacterial growth. […] Concentration-response experiments were then carried out to determine the IC50 values (Figure 3b,c), which are summarised in Table 1.
Strains PA14 mCTX::PpqsA-lux and PAO1-L mCTX::PpqsA-lux were constructed using plasmid mini-CTX::PpqsA-lux, as previously described, and the assay was performed according to a published protocol. For screening, the compounds were tested at a concentration of 10 µM, which was prepared from a 10 mM stock, in DMSO.

[2] = system: pyocyanin production by PA14; experiment: Pyocyanin production assay, PA14; format: cell-based, Pseudomonas aeruginosa; details: 3x IC50, 16 h
Protocol: (§2) Pyocyanin is a blue redox-active toxin, produced by P. aeruginosa and strongly-controlled by PqsR via the regulation of pqsE expression. Pyocyanin is essential for the pathogenicity of P. aeruginosa in lung infections. The effect of the PqsR inhibitors on pyocyanin production by PA14 and PAO1-L strains, when grown in the presence or absence of the inhibitors, was investigated (Figure 4).
(§3) The experiment was performed following a published protocol with minor modifications. P. aeruginosa strains were cultured into 5 mL fresh medium overnight. […] Cells were centrifuged at 10,000 RCF for 10 min (Allegra 64R centrifuge, Beckman Coulter, High Wycombe, UK) and the supernatant was transferred to 15 mL falcon tubes with a HSW 10 mL Soft-Ject Syringe and a […] Sartorius syringe-driven filter (Fisher Brand, Loughborough, UK). Pyocyanin pigment was extracted into chloroform by mixing 7.5 mL of supernatant with 4.5 mL of chloroform. Pyocyanin was further extracted into 1.5 mL of 0.2 M HCL, which gave a pink/red solution, and the absorbance was measured at 520 nm.

[3] = system: PAO1-L; experiment: Bacterial growth (optical density) in reporter assay, PAO1-L; format: cell-based, Pseudomonas aeruginosa; details: compound vs DMSO control
Protocol: as §1
Figure 3 Whole bacterial cell-based P. aeruginosa compound screen for both PqsR and growth inhibition (a) Activity against PA14 (green) and PAO1-L (purple) PpqsA-lux reporter strains at 10 µM test compound; (b) and (c) Dose-response curves for active compounds against PA14 (b) and PAO1-L (c); (d) and (e) growth curves for PA14 (d) and PAO1-L (e) in the presence of compound or DMSO control.

[4] = Hepatic microsomal stability, human; format: in vitro ADME; details: liver microsomes, pH 7.4, 0.5 mg/mL protein, NADPH, 37 °C; for half-life at 1 µM: read-out: Microsomal Stability Human t1/2
Protocol: Dilutions of a 1 mM test compound DMSO stock solution were prepared in buffer (typically 0.01 M phosphate buffered saline (pH 7.4) so that the final DMSO concentration was 0.1% v/v and the final test compound concentration tested was 1 µM. Following addition of protein (0.5 mg/mL final) and NADPH, the samples were pre-incubated for 10 min prior to the start of the incubation by the addition of test compound. The test compounds were then incubated (n = 2; 1 µM final concentration) at 37 °C with tissue microsomes. Aliquots were sampled at several time points and mixed with acetonitrile (containing internal standard) to terminate the reaction and precipitate the proteins. All the samples were mixed, centrifuged and the supernatants analysed by UPLC-MS/MS. The intrinsic clearance (Clint) and half-life (t 1/2) values were determined from the slope of the parent depletion curve. Control compounds for low, moderate and high intrinsic clearance, respectively, for both human and rat microsomes, were included.

[5] = system: pyocyanin production by PAO1-L; experiment: Pyocyanin production assay, PAO1-L; format: cell-based, Pseudomonas aeruginosa; details: 3x IC50, 16 h
Protocol: as §2, §3

[6] = Plasma stability, human; format: in vitro ADME; details: 37 °C; for half-life at 1 µM: human, plasma, up to 2 h, read-out: Plasma Stability Human t 1/2
Protocol: Dilutions of a 10 mM test compound DMSO stock solution were prepared so that the final DMSO concentration was 1% v/v and the final test compound concentration tested was 1 µM. Following the addition of the test compound to plasma, the samples were pre-incubated for 10 min prior to the start of the incubation by the addition of the test compound. The test compound was incubated (n = 2; 1 µM final concentration) at 37 °C with plasma for up to 2 h. Aliquots were sampled at several time points and mixed with acetonitrile (containing internal standard) to terminate the reaction and precipitate the proteins. All the samples were mixed, centrifuged and the supernatants analysed by UPLC-MSMS. Parent disappearance and half-life (t 1/2) values were determined from the slope of the parent depletion curve. Control compounds (imidapril, enalapril, tenofovir and/or propantheline), were respectively included.

[7] = Pseudomonas aeruginosa, PA14, read-out: IC50 PA14, PpqsA-lux reporter
[8] = read-out: IC50 PA14, PpqsA-lux reporter
[9] = strain not singled out in the sentence

SMILES | IC50 [1, 7] [nM] | activity at 10 µM ([1]; Pseudomonas aeruginosa) [%] | IC50 [1, 8] [nM] | PqsR inhibitory activity (in words), PA14 [1] | Effect on pyocyanin production (in words), PA14 [2] | Reduction of pyocyanin production, PA14 [2, 9] | Effect on bacterial growth, PAO1-L [3] | microsomal CLint at 1 µM [4] [µL/min/mg] | half-life at 1 µM [4] [min] | Effect on pyocyanin production (in words), PAO1-L [5] | Reduction of pyocyanin production, PAO1-L [5, 9] | half-life at 1 µM [6] [min] | Plasma stability (in words), human plasma ([6]; 1 µM)
CC(=O)N1N=C(c2ccccc2)CC1c1cccc(Nc2ccnc3cc(Cl)ccc23)c1 (centres unmarked) [IIa] | 3700 | 19.7 ± 1.9 | 4000 ± 1620 | strong PqsR inhibitory activity | weakest effect | over 25% | without interfering with bacterial growth | 73 | 19 | weakest effect | over 25% | 73.8 | 
O=CN1N=C(c2ccccc2)CC1c1cccc(Nc2ccnc3cc(Cl)ccc23)c1 (centres unmarked) [Ia] | 2200 | 18.7 ± 1.98 | 2300 ± 510 | strong PqsR inhibitory activity | strongest effect |  | without interfering with bacterial growth | 60.3 | 23.3 | strongest effect |  | 132 | greatest plasma stability
